Experimental data as given in ChEMBL document CHEMBL5107972 (RSC Med Chem, 2022).
Converted amounts (≈) assume the structure as drawn.

What was measured:
Assay type in all cases: functional
[1] = system: Mycobacterium tuberculosis; test: Antitubercular activity against clinical isolate isoniazid-resistant Mycobacterium tuberculosis ATCC 35822 assessed as inhibition of bacterial growth incubated for 7 days by Presto blue resazurin microtiter plate assay; settings: ATCC 35822, 168 h, time 7 day
[2] = system: Mycobacterium tuberculosis; test: Antitubercular activity against clinical isolate ethambutol-resistant Mycobacterium tuberculosis ATCC 35837 assessed as inhibition of bacterial growth incubated for 7 days by Presto blue resazurin microtiter plate assay; settings: ATCC 35837, 168 h, time 7 day
[3] = system: Mycobacterium tuberculosis; test: Antitubercular activity against clinical isolate rifampicin-resistant Mycobacterium tuberculosis ATCC 35838 assessed as inhibition of bacterial growth incubated for 7 days by Presto blue resazurin microtiter plate assay; settings: ATCC 35838, 168 h, time 7 day
[4] = system: Mycobacterium tuberculosis; test: Antitubercular activity against clinical isolate streptomycin-resistant Mycobacterium tuberculosis ATCC 35820 assessed as inhibition of bacterial growth incubated for 7 days by Presto blue resazurin microtiter plate assay; settings: ATCC 35820, 168 h, time 7 day

Compound | MIC [1] | MIC [2] | MIC [3] | MIC [4]
CC[C@@H](CO)NCCN[C@@H](CC)CO [ETHAMBUTOL] | 4 µg/mL (≈ 19.6 µM) | 32 µg/mL (≈ 157 µM) | 2 µg/mL (≈ 9.79 µM) | 2 µg/mL (≈ 9.79 µM)
CO[C@H]1/C=C/O[C@@]2(C)Oc3c(C)c(O)c4c(O)c(c(/C=N/N5CCN(C)CC5)c(O)c4c3C2=O)NC(=O)/C(C)=C\C=C\[C@H](C)[C@H](O)[C@@H](C)[C@@H](O)[C@@H](C)[C@H](OC(C)=O)[C@@H]1C [RIFAMPIN] | 0.03 µg/mL (≈ 0.0365 µM) | 0.03 µg/mL (≈ 0.0365 µM) | 64 µg/mL (≈ 77.8 µM) | 0.03 µg/mL (≈ 0.0365 µM)
CN[C@@H]1[C@H](O[C@H]2[C@H](O[C@H]3[C@H](O)[C@@H](O)[C@H](N=C(N)N)[C@@H](O)[C@@H]3N=C(N)N)O[C@@H](C)[C@]2(O)C=O)O[C@@H](CO)[C@H](O)[C@H]1O [STREPTOMYCIN] | 1 µg/mL (≈ 1.72 µM) | 1 µg/mL (≈ 1.72 µM) | 1 µg/mL (≈ 1.72 µM) | > 64 µg/mL
NNC(=O)c1ccncc1 [ISONIAZID] | > 64 µg/mL | 0.03 µg/mL (≈ 0.219 µM) | 0.03 µg/mL (≈ 0.219 µM) | 0.03 µg/mL (≈ 0.219 µM)
